Measured values taken from patent publication US9051351B2, “Hepatocyte growth factor mimics as therapeutic agents” (Washington State University, priority 2011, dated 2015).
Entries after “also recorded” stand apart in the source; their conditions may differ. Where a name gives a salt, the structure may show the parent alone. Read-outs that look alike come from different tables or passages of the source. Where a SMILES comes first, the peptide text is derived from it. [ ]: non-standard residue; d: D form. dNle = CCCC[C@@H](N)C(=O)O; Nle = CCCC[C@H](N)C(=O)O; GABA = NCCCC(=O)O

How the values were obtained:
[1] = Serum metabolism of peptides in rat serum; format: in vitro ADME; conditions: for half-life at 500 µg/mL: male, Sprague Dawley, rat, serum
Procedure: Four month old male Sprague Dawley rats were used as the blood source for the metabolism studies. Blood was collected from left/right jugular veins of the rats using sterile catheters. After a 30 minute incubation on ice, the blood was centrifuged at 1000 rpm for 15 min to separate the serum. Serum was then transferred to clean tubes and stored at −20° C. until use.
Except for dihexa all drug solutions were prepared in HPLC grade water at 5 mg/ml. Stock drugs were kept in powder form and stored at −20° C. Serum metabolism experimental procedure and analysis. Rat blood serum samples were pre-equilibrated at 37° C. and then 10 μL (50 μg) of each drug solution was added to 90 μL of rat serum in 1.5 mL Eppendorf tube maintained at 37° C. At specified time intervals, metabolism was terminated by precipitating proteins with the addition of 1 ml of a solution of acetonitrile (ACN) and acetic acid (9:1, v/v). The terminated reaction mixture was stored in refrigerator (5° C.) overnight and centrifuged (14,000 rpm) for 30 min to remove precipitated proteins. The separated supernatant was dried in vacuum concentrator. The dried samples were reconstituted using 200 μL HPLC mobile phase (10% v/v ACN in water), vortexed briefly, and subjected to HPLC separation and analysis. A serum blank experiment to detect any interfering peaks in the HPLC chromatogram was performed by in an identical manner except that no drug was added. Zero time values for each drug candidate were established by first treating the serum with ACN, processing the sample as described above, adding drug, and then performing HPLC analysis.
The degradation rate of drug was determined by measuring the decrease in area under curve (AUC) at the retention time of drug over time. The AUC obtained from the zero time experiment was considered to represent the “100%” drug concentration and was used to determine the decreased drug concentration at each specified time interval. The semi-logarithmic plot of drug concentration vs. time was generated to determine degradation kinetic constant (k) of the tested drug. The half-life of drug was (t1/2) was calculated by 0.693/k.
Analysis of samples was performed using an HPLC system. The system consisted of a communications bus module, pumps, and a photodiode array detector. Separation was achieved using a C18 (250 mm×4.6 mm id., 5 μm particle size) reverse phase column. The column temperature was set at 40° C. The mobile phase consisted of a mixture of ACN and water with 0.1% TFA and was degassed by ultrasonication. Samples were introduced by manual mode with an injection volume of 250 μL. The drug was eluted with a flow rate of 1 mL/min and detected by PDA detector at […] wavelengths of 215 and 280 nm.

scopolamine treated rats = assay: Morris water maze, scopolamine amnesia model; format: in vivo, rat; conditions: for mean latency to find the pedestal: icv, Dihexa, Hinge 300 pmol, scopolamine 70 nmol
Procedure: Swim speed was determined from these values.

hippocampal neurons = assay: Dendritic spine counts (spinogenesis) in mRFP-β-actin transfected dissociated hippocampal neurons; format: cell-based, rat; conditions: dose-response; 10^-8 and 10^-10 M
Procedure: Hippocampal neurons (2×10^5 cells per square cm) were cultured from P1 Sprague Dawley rats on plates coated with poly-L-lysine from Sigma (St. Louis, Mo.; molecular weight 300,000). […] Each experiment was repeated at least three times using independent culture preparations. […] Hippocampal neurons (2×10^5 cells per square centimeter) were cultured from P1-2 Sprague Dawley rats on plates coated with poly-L-lysine from Sigma (St. Louis, Mo.; molecular weight 300,000). Hippocampal neurons were maintained in Neurobasal A media from Invitrogen (Carlsbad, Calif.) supplemented with B27 from Invitrogen, 0.5 mM L-glutamine, and […] cytosine-D-arabinofuranoside from Sigma added at 2 days in vitro. Hippocampal neurons were then cultured a further 3-7 days, at which time they were either transfected or treated with various pharmacological reagents as described in the text or figure legends. Neurons were transfected with mRFP-β-actin on day in vitro 6 […] using LipofectAMINETM 2000 (Invitrogen) according to the manufacturer's protocol. […] On DIV7 the cells were treated with vehicle (H20) or peptides (as described in the text) added to media. […] Five 50 μm long segments of dendrite from at least 10 neurons per data point were analyzed for each data point reported. Each experiment was repeated at least three times using independent culture preparations. […] A target sequence for c-Met was designed using RNAi central design program (see the website located at […].edu/). The target sequence […] NO: 2) was inserted into pSUPER vector (Oligoengine, Seattle Wash.) which drives endogenous production of shRNA under the H1 promoter. The shRNA was transfected into cells using the lipofectamine method described above. Verification of receptor knockdown was done by creating a c-[…]-Myc tagged gene product using the Gateway cloning system (Invitrogen). The Met protein coding sequence was cloned from rat whole brain cDNA using primers obtained from Integrated DNA Technologies, Inc. The amplified product was gel purified and a band corresponding to 190 kDa band excised and cloned into a […] destination vector (Gateway). Hippocampal neurons (2×10^5 cells per square cm) were cultured from P1 Sprague Dawley rats on plates coated with poly-L-lysine from Sigma (St. Louis, Mo.; molecular weight […]).

[2] = rat serum, 37° C., Mean +/− SD, N = 3, read-out: Half-Life (min), serum stability

CCCC[C@H](N)C(=O)N[C@@H](Cc1ccc(O)cc1)C(=O)N[C@H](C(=O)N[C@@H](Cc1cnc[nH]1)C(=O)N1CCC[C@H]1C(=O)N[C@@H](Cc1ccccc1)C(=O)O)[C@@H](C)CC [Nle1-AngIV, Norleucine-YIHPF, reference compound] (H-[Nle]YIHPF-OH)
half-life at 500 µg/mL [1, 2]: 1.42 min | half-life at 500 µg/mL ([1]; read-out: t1/2 in rat serum): 1.4 min | Half-Life (min), serum stability ([1]; rat serum, 37° C., Mean +/− SD, N = 3): less than two minutes

CCCC[C@H](NC(C)=O)C(=O)N[C@@H](Cc1ccc(O)cc1)C(=O)N[C@H](C(=O)N[C@@H](Cc1c[nH]cn1)C(=O)O)[C@@H](C)CC [N-acetyl-Nle-Tyr-Ile-His] (Ac-[Nle]YIH-OH)
half-life at 500 µg/mL [1, 2]: 115 min

CN1[C@@H]2C[C@@H](OC(=O)[C@H](CO)c3ccccc3)C[C@H]1[C@@H]1O[C@@H]12 [scopolamine, Scopolamine hydrobromide, reference compound]
mean latency to find the pedestal (scopolamine treated rats; day one of training): 114.7 s | mean latency to find the pedestal (scopolamine treated rats; final day of training (day 8)): 84.8 s | mean latency to find the pedestal (scopolamine treated rats; fourth day of training): 102.4 s

CCCC[C@H](N)C(=O)N[C@@H](Cc1ccc(O)cc1)C(=O)N[C@H](C(=O)N[C@@H](Cc1c[nH]cn1)C(N)=O)[C@@H](C)CC [Nle-Tyr-Ile-His-NH2] (H-[Nle]YIH-NH2)
half-life at 500 µg/mL [1, 2]: 23 min

CC[C@H](C)[C@H](NC(=O)[C@H](Cc1ccc(O)cc1)NC(=O)CCCN)C(=O)O [GABA-Tyr-Ile] (H-[GABA]-Tyr-Ile-OH; N-terminus and C-terminus assumed)
time spent in the target quadrant, day 9 probe trial (scopolamine treated rats; scopolamine icv 70 nmol, analog icv 1 nmol): different than all the other treated groups | latency to find the submerged platform in the Morris water maze (scopolamine treated rats; scopolamine icv 70 nmol, analog icv 1 nmol, 8 days): exhibited the best performance among the compound treated groups; also recorded: not significantly different than the vehicle control group | time spent in the target quadrant, day 9 probe trial (scopolamine treated rats; scopolamine icv 70 nmol, analog icv 1 nmol, listed as GABA-Tyr): superior to all the other compound treated groups | half-life at 500 µg/mL [1, 2]: 946 min | spine numbers, stabilized AngIV analogs (FIG. 31) (hippocampal neurons): did not appear to be the most potent generator of new dendritic spines

CCCC[C@@H](N)C(=O)N[C@@H](Cc1ccc(O)cc1)C(=O)N[C@H](C(=O)O)[C@@H](C)CC [D-Nle-Tyr-Ile] (H-[dNle]-Tyr-Ile-OH)
half-life at 500 µg/mL [1, 2]: 225 min
